These are literature values, as cited in patent US5010059A, “Pharmaceutical products and lactosyl compounds” (Solco Basel AG, priority 1987, dated 1991).

The data set has as its system GalN/endotoxin hepatitis. The following applies: *p ≤ 0.01, **p ≤ 0.001; indomethacin 9 mg/kg; diethylcarbamazine 78 mg/kg i.p. every 45 minutes between 0 and 6 hours; dexamethasone 200 μg/kg i.p.; cited from earlier work.

Molecules are shown by their SMILES.

As to `C[C@@H]1C[C@H]2[C@@H]3CCC4=CC(=O)C=C[C@]4(C)[C@@]3(F)[C@@H](O)C[C@]2(C)[C@@]1(O)C(=O)CO` [Dexamethasone], the SGOT is on record as 140 ± 100 and the SGPT is 100 ± 60.
